Test results reported in patent US12629424B2, “Targeting Pleckstrin-2 for treating cancer” (Northwestern University, priority 2018, dated 2026).

Assays:
[1] = biological target: T1, GST-Plek2 (Homo sapiens, UniProt Q9NYT0); assay: isothermal titration calorimetry (ITC) of NUP-17d and its enantiomers with Plek2; format: binding; settings: PBS with 0.5% DMSO, 200 μM compound into 20 μM GST-Plek2
T1 construct: made in house
T1 sequence (Q9NYT0 1-353): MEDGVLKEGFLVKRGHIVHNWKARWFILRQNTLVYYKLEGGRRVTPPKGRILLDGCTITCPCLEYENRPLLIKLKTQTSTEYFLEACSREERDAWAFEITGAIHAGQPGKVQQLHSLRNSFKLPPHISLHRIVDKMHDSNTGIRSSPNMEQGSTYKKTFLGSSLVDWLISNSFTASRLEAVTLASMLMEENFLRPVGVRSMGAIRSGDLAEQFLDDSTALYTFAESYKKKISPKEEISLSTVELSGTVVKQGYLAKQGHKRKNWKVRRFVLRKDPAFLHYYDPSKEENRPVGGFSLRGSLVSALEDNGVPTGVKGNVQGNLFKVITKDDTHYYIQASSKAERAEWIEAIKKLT
Procedure: (§1) FIG. 4. NUP-17 directly targets and binds to Plek2. (A) Plek2 was overexpressed in mouse fetal liver Ter119 negative erythroblasts. NUP-17 (40 μM) were added in the control cells and Plek2 overexpressed cells. Cell number was calculated 48 hours after culture. (B) Plek2 was overexpressed in Cos-7 cells. Phalloidin 647 was used to stain actin in the indicated cells. 10 μM of NUP-17 was used. (C) Quantitative analysis of B. (D) ITC experiments using the microCal ITC200 instrument. 200 μM NUP-17 was titrated into a solution of 20 μM GST control or GST-Plek2. *P<0.05; *** P<0.001. 17 represents NUP-17.
(§2) FIG. 17. Isothermal titration calorimetry (ITC) experiments of NUP-17d and its enantiomers. -17-d: delta H=−1.9 kcal/mol delta S=+22.9 cal/molK; -17-1b: delta H=−2.2 kcal/mol delta S=+22.8 cal/molK; -17-2b: delta H=−1.5 kcal/mol delta S=+24.3 cal/molK; -17-1a: delta H=−5.3 kcal/mol delta S=+7.3 cal/molK; and -17-2a: delta H=−4.2 kcal/mol delta S=+13.9 cal/molK.
(§3) To confirm that the inhibitory effect of NUP-17 on the proliferation and differentiation of fetal liver erythroid cells is due to Plek2 binding, we overexpressed Plek2 in the fetal liver cells and treated the cells with NUP-17. […] In addition, we also overexpressed Plek2 in Cos-7 cells, which induced prominent lamellipodia formation as previously reported (13).
Biophysical Assays and Counter-Screening. To confirm the interaction of the optimized compounds with Plek2, we will perform isothermal calorimetry (ITC) using the recombinant protein GST-Plek2 or Flag-tagged Plek2 we have produced. Specifically, MicroCal ITC200 instrument (GE Healthcare) with the jacket temperature will set at 25° C. The protein and our compound solutions will be prepared in PBS with 0.5% DMSO. Titrations of 200 μM compound into 20 μM GST-Plek2 solutions will be sufficient for 15 injections of 2.5 μl each with 120 seconds spacing between injections and a mixing speed at 900 rpm. An initial 0.1 μl injection will subsequently be removed during data analysis. A control experiment will be performed by titrating 200 μM compound into a solution of 20 μM GST. […]

[2] = system: mouse fetal liver erythroid progenitors; assay: Proliferation of mouse fetal liver erythroid progenitors cultured in erythropoietin containing medium (Plek2 functional screening system); format: cell-based; settings: mouse fetal liver erythroblasts, Epo medium
Procedure: FIG. 3. NUP-17 inhibits Plek2 function in fetal liver erythropoiesis. (A) Mouse Ter119 (a mature erythroid cell marker) negative erythroblasts were purified and cultured for two days (D0-D2). The protein levels of Plek2 and Hsc70 loading control were analyzed by a Western blot assay. (B) The structure of NUP-17. (C-D) The proliferation and enucleation (DNA negative) profiles of cells from A treated with different concentration of NUP-17 for 48 hours. (E) Simulated Plek2 DEP domain interaction with NUP-17 using Schrodinger software. Amino acids that are potentially critical for the interaction are highlighted in yellow. *P<0.05; ** P<0.01; *** P<0.001.
as §1, with “200 μM NUP-17 was titrated into a solution of 20 μM GST control or GST-Plek2. *P<0.05; *** P<0.001. 17 represents NUP-17.” left out
FIG. 5. […] (A) NUP-17d was analyzed for the inhibitory effects on fetal liver erythroblasts as in FIG. 3. […] (D) Quantitative analysis of C. **P<0.01; *** P<0.001. […]
FIG. 11. […] Analogs of NUP-17d were analyzed for their effect on fetal liver erythroblast proliferation as in FIG. 3. […]

[3] = system: Plek2-overexpressed Cos-7 cells; assay: Lamellipodia formation assay in Plek2-overexpressed Cos-7 cells (phalloidin actin stain); format: cell-based; settings: 10 μM
Procedure: as §1
FIG. 5. Identification of a potent analog of NUP-17. (A) NUP-17d was analyzed for the inhibitory effects on fetal liver erythroblasts as in FIG. 3. Indicated doses were used. (B) The structure of NUP-17d. (C) Plek2 was overexpressed in Cos-7 cells. Phalloidin 647 was used to stain actin in the indicated cells. 10 μM of NUP-17 and NUP-17d were used. (D) Quantitative analysis of C. **P<0.01; *** P<0.001. 17 and 17d represent NUP-17 and NUP-17d, respectively.
To confirm that the inhibitory effect of NUP-17 on the proliferation and differentiation of fetal liver erythroid cells is due to Plek2 binding, we overexpressed Plek2 in the fetal liver cells and treated the cells with NUP-17. […]

[4] = biological target: T1, GST-Plek2; assay: Isothermal titration calorimetry (ITC) binding to GST-tagged Plek2; settings: FIG. 17
Procedure: as §1, §2, §3
Biophysical Assays and Counter-Screening. […]

[5] = biological target: T2, Plek2 (Homo sapiens, UniProt Q9NYT0); assay: Plek2-lipid binding (protein-lipid overlay); settings: data not shown
T2 construct: we examined the ability of full-length protein to adhere to various phospholipids
T2 sequence (Q9NYT0 1-353): T1 sequence (Q9NYT0 1-353)
Procedure: (§4) FIG. 7. Plek2 binds to PtdIns(3,4)P2 and is critical for the PI3K signaling pathway. […] (B) Plek2 membrane association and cell spreading are PI3K dependent. Jurkat cells expressing GFP fused to the amino-terminus of wild-type Plek2 were plated on fibronectin. Real-time confocal imaging of live cells was performed. Shown is a cell expressing Plek2 before and after inhibition of PI3K with 100 nM wortmannin. (C) Bone marrow lineage negative cells from the indicated mice were treated with 2 units erythropoietin for the indicated amount of time (minutes). The level of Phospho-Akt and total Akt were analysis by Western blot assays. (D) Same as C except wild type bone marrow cells were used. 10 μM NUP-17d was used. The levels of the indicated proteins were analyzed by Western blot assays. (E) Kaplan-Meier survival analysis of indicated mice. Ptenfl/fl mice were crossed with Mx-Cre and Plek2 whole body knockout mice. The deletion of Pten in the hematopoietic tissues was induced by poly-IC injection. N=5 in each group. P=0.0067 between Ptenfl/flMx-Cre and Ptenfl/flMx-Cre, Plek2 KO. (F) Hematoxylin and eosin stain of the lungs from representative mice in E. Scale bar: 100 μm.
Rationale and Preliminary Data. […] To define the lipid binding specificity of Plek2, we examined the ability of full-length protein to adhere to various phospholipids.

[6] = system: phosphorylation of Akt; assay: Akt phosphorylation in erythropoietin-treated bone marrow lineage negative cells (Western blot); format: cell-based, mouse; settings: wild type bone marrow lineage negative cells, 10 μM
Procedure: as §4
To further determine the role of Plek2 in PI3K pathway, we overexpressed GFP-fusion Plek2 in Jurkat cells. […]

[7] = system: Epo-induced myeloproliferation in wild-type mice; assay: Erythropoietin (Epo) injection mouse model; format: in vivo
[8] = system: JAK2V617F knockin mice; assay: JAK2V617F knockin MPN mouse model; format: in vivo; settings: 25 mg/kg once every two days, one month
Procedure: FIG. 15A and FIG. 15B. Compound NUP-17d ameliorates myeloproliferation and thrombosis in JAK2^V617F knockin mice. FIG. 15A. RBC and WBC count of indicated mice after NUP-17d treatment. Two-month-old JAK2^V617F knockin mice were treated with NUP-17d once every two days for three weeks. Wild type (WT) littermate control mice were used for comparison *P<0.05; ** P<0.01; *** P<0.001. FIG. 15B. H&E stain of the spleen and lung sections. Inserted panels with high magnification reveal vascular occlusions. Scale bars: 100 μm.
We tested the effects of Plek2 inhibitors in the JAK2^V617F knockin MPN mouse model. (See FIGS. 15A and 15B). The same dosage and dosing schedule of NUP-17d (25 mg/kg, once every two days) were applied to JAK2^V617F knockin mice as those applied to the Epo model. We have treated the mice for one month. […] (See FIG. 15A). […] (See FIG. 15B).

[9] = FIG. 17, general method: MicroCal ITC200, 25° C
[10] = 40 mg/kg every 2 days for 8 days

`CN1CCN([C@H](c2ccc(Cl)cc2)[C@@H](O)C(=O)c2c[nH]c3ccccc23)CC1` [17d-1a] gave a Kd ([1]; FIG. 17, value printed in uM, general method: MicroCal ITC200, 25° C) of 2.12 µM.
`CN1CCN([C@@H](c2ccc(Cl)cc2)[C@H](O)C(=O)c2c[nH]c3ccccc23)CC1` [17d-1b] was tested, and the Kd [1, 9] was 0.357 µM.
For `CN1CCN(C(c2ccc(Cl)cc2)C(O)C(=O)c2c[nH]c3ccccc23)CC1` (stereo not shown) [17d], the Kd [1, 9] was 0.4 µM.
With `CN1CCN(C(c2ccc(Cl)cc2)C(O)C(=O)c2c[nH]c3ccccc23)CC1` (stereo not shown) [NUP-17d] the IC50 [2] was less than 10000 nM, the “reversal of lamellipodia in Plek2 overexpressed Cos-7 cells” value [3] was “more potent inhibition” and the “ITC delta H” value [4] was -1.9 kcal/mol. The “ITC delta S” value [4] was “+22.9 cal/molK”, the “disruption of Plek2-lipid binding” value [5] was “did not disrupt Plek2-lipid binding” and the “phosphorylation of Akt” value [6] was “significantly inhibited”. The “Epo-induced erythrocytosis in spleen red pulp and lung vasculature (histology)” value [7, 10] was “markedly ameliorated”, the Epo-induced leukocytosis [7, 10] was “significantly reduced” and the Epo-induced reticulocytosis [7, 10] was “significantly reduced”. The Epo-induced splenomegaly [7, 10] was “significantly reduced”, the Epo-induced vascular occlusions [7, 10] was “significantly reduced” and the tolerability ([7]; 40 mg/kg, 2 days, preliminary studies) was “well-tolerated”. For the same molecule, the “red blood cell count” value ([7]; Epo 5,000 U/kg every 2 days, compound 40 mg/kg every 2 days for 8 days, 3 weeks) was “did not significantly reduce”, the “hematologic or other abnormalities in treated mice” value ([7]; during the experiments) was “no hematologic or other abnormalities” and the WBC count [8] was “largely normalized”. The “red blood cell count” value [8] was “significantly reduced”, the “side effects with the treatment” value [8] was “no gross side effects” and the “spleen size and extramedullary erythropoiesis” value [8] was “markedly reduced”. For the same molecule, the “vascular occlusions in the lungs” value [8] was “dramatically ameliorated”.
